Structures are written as SMILES.

What all share (settings): FP, probe AbuRPFK-5FAM, 60 min at 25° C.
Assay [1] addresses T1, XIAP-BIR3 (Homo sapiens, UniProt P98170).
T1 construct: purchased Reaction Biology APT-11-374
Put plainly: XIAP-BIR3 fluorescence polarization binding assay. The source says: (§1) IAPs are one main cause of cancer development and may result from overexpression of anti-apoptotic proteins. This protocol establishes three binding assays for XIAP Bir3 domain, cIAP1 and cIAP2 using FP (Fluorescence polarization) technology. The fluorescence probe used is a synthetic peptide conjugated to 5-carboxyfluorescein (AbuRPFK-5FAM). The fluorescence polarization value (mP) was detected by Envision, which was used to reflect the binding degree of protein and fluorescent marker. Reagents and equipment used in the assay are listed below, followed by the protocol.
(§2) • a) Prepare 100 times of the final cpd concentration in appropriate tube and transfer 5 uL compound (“cpd”) to 45 μL 1× reaction buffer with 10% DMSO. • b) The final reference cpd concentration is 10000, 3333.3, 1111.1, 370.4, 123.4, 41.2, 13.7, 4.57, 1.52, 0.51, 0.17 and 0 nM. So the 100 times of the concentration is 1000, 333.3, 111.1, 37.04, 12.34, 4.12, […], 0.15, 0.05, 0.017 and 0 μM. The final test cpds concentration is 3333.3, 1111.1, 370.4, 123.4, 41.2, 13.7, 4.57, 1.52, 0.51, 0.17, 0.057 and 0 nM. So the 100 times of the concentration is 333.3, 111.1, 37.04, 12.34, 4.12, […], 0.15, 0.05, 0.017, 0.0057 and 0 μM • c) Add 8 μL/well each dose enzyme to 384 well microplate (ProxiPlate-384 F Plus, 6008260) using multichannel pipette, prepared in step 2.1.1.2 • d) Centrifuge at 1000 rpm. • e) Add 2 μL/well cpd to 384 well microplate (ProxiPlate-384 F Plus, 6008260) using multichannel pipette, prepared in step a). • f) Centrifuge at 1000 rpm. RT, 15 min. • g) Start the assay by adding 10 uL/well substrate (prepared in step 2.1.1.3) to the same 384 well microplate using multichannel pipette • h) Centrifuge at 1000 rpm. • i) Cover the assay plate and incubate for 60 min at 25° C. • j) Read on Envision 2104 for mP and plot the IC50s with mP values. • k) Data analysis: IC50s were determined based on a non-linear regression analysis of data collected.
Background: Polarisation of emitted light reports the rotation of a fluorescent probe.

The target of assay [2] is T2, cIAP1-BIR3 (Homo sapiens, UniProt Q13490).
T2 construct: cIAP1-BIR3; Reaction Biology; APT-11-370; purchased Reaction Biology APT-11-370
Put plainly: cIAP1-BIR3 fluorescence polarization binding assay.
From the text: as §1, §2

Assay [3] deals with T3, cIAP2-BIR3 (Homo sapiens, UniProt Q13489).
T3 construct: cIAP2-BIR3; Reaction Biology; APT-11-372; purchased Reaction Biology APT-11-372
Put plainly: cIAP2-BIR3 fluorescence polarization binding assay.
From the text: as §1, §2

T2 sequence (Q13490 253-363 limits assumed): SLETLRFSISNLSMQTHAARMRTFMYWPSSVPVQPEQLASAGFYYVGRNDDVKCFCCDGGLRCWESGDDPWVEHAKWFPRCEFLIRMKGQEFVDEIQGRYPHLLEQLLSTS
T1 sequence (P98170 241-356 limits assumed): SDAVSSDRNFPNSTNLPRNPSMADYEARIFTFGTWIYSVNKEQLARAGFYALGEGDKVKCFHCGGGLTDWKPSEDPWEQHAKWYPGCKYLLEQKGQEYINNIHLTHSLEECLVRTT
T3 sequence (Q13489 238-349 limits assumed): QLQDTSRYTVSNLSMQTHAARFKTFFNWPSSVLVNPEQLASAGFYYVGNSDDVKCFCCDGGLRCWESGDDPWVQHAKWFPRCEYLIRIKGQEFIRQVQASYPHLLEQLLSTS

A word on the IC50: it is the concentration at which inhibition is half-maximal. A lower IC50 goes with greater potency in that assay. Turning to `CN[C@@H](C)C(=O)N[C@H](C(=O)N1C[C@@H](OCCCN2CCN(CCCO[C@H]3C[C@@H](C(=O)N[C@@H]4CCCc5ccccc54)N(C(=O)[C@@H](NC(=O)[C@H](C)NC)C4CC4)C3)CC2)C[C@H]1C(=O)N[C@@H]1CCCc2ccccc21)C1CC1` [Compound II-F, (2S,4S)-1-[(2S)-2-Cyclopropyl-2-[(2S)-2-(methylamino)propanamido]acetyl]-4-[3-[4-(3-[[(3S,5S)-1-[(2S)-2-cyclopropyl-2-[(2S)-2-(methylamino)propanamido]acetyl]-5-[[(1R)-1,2,3,4-tetrahydronaphthalen-1-yl]carbamoyl]pyrrolidin-3-yl]oxy]propyl)piperazin-1-yl]propoxy]-N-[(1R)-1,2,3,4-tetrahydronaphthalen-1-yl]pyrrolidine-2-carboxamide], the IC50 in assay [1] lay within 100 to 1000 nM; in assay [2], 0.1 to 10 nM; in assay [3] it was 10 to 100 nM.

For `CC[C@H](C)[C@H](NC(=O)[C@H](C)NC)C(=O)N1C[C@@H](OCCCN2CCN(CCCO[C@H]3C[C@@H](C(=O)N[C@@H]4CCCc5ccccc54)N(C(=O)[C@@H](NC(=O)[C@H](C)NC)[C@@H](C)CC)C3)CC2)C[C@H]1C(=O)N[C@@H]1CCCc2ccccc21` [Compound II-G, (2S,4S)-1-[(2S)-3-Methyl-2-[(2S)-2-(methylamino)propanamido]pentanoyl]-4-{3-[4-(3-{[(3S,5S)-1-[(2S)-3-methyl-2-[(2S)-2-(methylamino)propanamido]pentanoyl]-5-{[(1R)-1,2,3,4-tetrahydronaphthalen-1-yl]carbamoyl}pyrrolidin-3-yl]oxy}propyl)piperazin-1-yl]propoxy}-N-[(1R)-1,2,3,4-tetrahydronaphthalen-1-yl]pyrrolidine-2-carboxamide], the IC50 in assay [1], in assay [2] and in assay [3] was 0.1 to 10 nM in each case.

Turning to `CN[C@@H](C)C(=O)N[C@H](C(=O)N1C[C@@H](OCCCN2CCN(CCCO[C@H]3C[C@@H](C(=O)N[C@@H]4CCCc5ccccc54)N(C(=O)[C@@H](NC(=O)[C@H](C)NC)C4CCC4)C3)CC2)C[C@H]1C(=O)N[C@@H]1CCCc2ccccc21)C1CCC1` [Compound II-H, (2S,4S)-1-[(2S)-2-Cyclobutyl-2-[(2S)-2-(methylamino)propanamido]acetyl]-4-[3-[4-(3-[[(3S,5S)-1-[(2S)-2-cyclobutyl-2-[(2S)-2-(methylamino)propanamido]acetyl]-5-[[(1R)-1,2,3,4-tetrahydronaphthalen-1-yl]carbamoyl]pyrrolidin-3-yl]oxy]propyl)piperazin-1-yl]propoxy]-N-[(1R)-1,2,3,4-tetrahydronaphthalen-1-yl]pyrrolidine-2-carboxamide], the IC50 fell in the range of 10 to 100 nM in assay [1], 0.1 to 10 nM in assay [2] and 10 to 100 nM in assay [3].

With `CN[C@@H](C)C(=O)N[C@H](C(=O)N1C[C@@H](OCCC(=O)N2CCN(C(=O)CCO[C@H]3C[C@@H](C(=O)N[C@@H]4CCCc5ccccc54)N(C(=O)[C@@H](NC(=O)[C@H](C)NC)C4CCCCC4)C3)CC2)C[C@H]1C(=O)N[C@@H]1CCCc2ccccc21)C1CCCCC1` [Compound IV, (2S,4S)-1-[(2S)-2-Cyclohexyl-2-[(2S)-2-(methylamino)propanamido]acetyl]-4-{3-[4-(3-{[(3S,5S)-1-[(2S)-2-cyclohexyl-2-[(2S)-2-(methylamino)propanamido]acetyl]-5-{[(1R)-1,2,3,4-tetrahydronaphthalen-1-yl]carbamoyl}pyrrolidin-3-yl]oxy}propanoyl)piperazin-1-yl]-3-oxopropoxy}-N-[(1R)-1,2,3,4-tetrahydronaphthalen-1-yl]pyrrolidine-2-carboxamide], the half-maximal inhibitory concentration (IC50) in assay [1] fell in the range of 10 to 100 nM; in assay [2], 0.1 to 10 nM; in assay [3], 10 to 100 nM.

In the case of `CN[C@@H](C)C(=O)N[C@@H](C)C(=O)N1C[C@@H](OCCC(=O)N2CCN(C(=O)CCO[C@H]3C[C@@H](C(=O)N[C@@H]4CCCc5ccccc54)N(C(=O)[C@H](C)NC(=O)[C@H](C)NC)C3)CC2)C[C@H]1C(=O)N[C@@H]1CCCc2ccccc21` [Compound IV-A, (2S,4S)-1-[(2S)-2-[(2S)-2-(Methylamino)propanamido]propanoyl]-4-[3-[4-(3-[[(3S,5S)-1-[(2S)-2-[(2S)-2-(methylamino)propanamido]propanoyl]-5-[[(1R)-1,2,3,4-tetrahydronaphthalen-1-yl]carbamoyl]pyrrolidin-3-yl]oxy]propanoyl)piperazin-1-yl]-3-oxopropoxy]-N-[(1R)-1,2,3,4-tetrahydronaphthalen-1-yl]pyrrolidine-2-carboxamide], the IC50 was 100 to 1000 nM in assay [1], 0.1 to 10 nM in assay [2] and 10 to 100 nM in assay [3].

For `CC[C@H](NC(=O)[C@H](C)NC)C(=O)N1C[C@@H](OCCC(=O)N2CCN(C(=O)CCO[C@H]3C[C@@H](C(=O)N[C@@H]4CCCc5ccccc54)N(C(=O)[C@H](CC)NC(=O)[C@H](C)NC)C3)CC2)C[C@H]1C(=O)N[C@@H]1CCCc2ccccc21` [Compound IV-B, (2S, 4S)-1-[(2S)-2-[(2S)-2-(Methylamino)propanamido]butanoyl]-4-[3-[4-(3-[[(3S,5S)-1-[(2S)-2-[(2S)-2-(methylamino)propanamido]butanoyl]-5-[[(1R)-1,2,3,4-tetrahydronaphthalen-1-yl]carbamoyl]pyrrolidin-3-yl]oxy]propanoyl)piperazin-1-yl]-3-oxopropoxy]-N-[(1R)-1,2,3,4-tetrahydronaphthalen-1-yl]pyrrolidine-2-carboxamide], the IC50 lay within 100 to 1000 nM in assay [1], 0.1 to 10 nM in assay [2] and 10 to 100 nM in assay [3].

As to `CN[C@@H](C)C(=O)N[C@H](C(=O)N1C[C@@H](OCCC(=O)N2CCN(C(=O)CCO[C@H]3C[C@@H](C(=O)N[C@@H]4CCCc5ccccc54)N(C(=O)[C@@H](NC(=O)[C@H](C)NC)C4CC4)C3)CC2)C[C@H]1C(=O)N[C@@H]1CCCc2ccccc21)C1CC1` [Compound IV-C, (2S,4S)-1-[(2S)-2-Cyclopropyl-2-[(2S)-2-(methylamino)propanamido]acetyl]-4-{3-[4-(3-{[(3S,5S)-1-[(2S)-2-cyclopropyl-2-[(2S)-2-(methylamino)propanamido]acetyl]-5-{[(1R)-1,2,3,4-tetrahydronaphthalen-1-yl]carbamoyl}pyrrolidin-3-yl]oxy}propanoyl)piperazin-1-yl]-3-oxopropoxy}-N-[(1R)-1,2,3,4-tetrahydronaphthalen-1-yl]pyrrolidine-2-carboxamide], the IC50 fell in the range of 100 to 1000 nM in assay [1], 0.1 to 10 nM in assay [2] and 0.1 to 10 nM in assay [3].

`CN[C@@H](C)C(=O)N[C@H](C(=O)N1C[C@@H](OCCC(=O)N2CCN(C(=O)CCO[C@H]3C[C@@H](C(=O)N[C@@H]4CCCc5ccccc54)N(C(=O)[C@@H](NC(=O)[C@H](C)NC)C(C)C)C3)CC2)C[C@H]1C(=O)N[C@@H]1CCCc2ccccc21)C(C)C` [Compound IV-D, (2S, 4S)-1-[(2S)-3-Methyl-2-[(2S)-2-(methylamino)propanamido]butanoyl]-4-[3-[4-(3-[[(3S,5S)-1-[(2S)-3-methyl-2-[(2S)-2-(methylamino)propanamido]butanoyl]-5-[[(1R)-1,2,3,4-tetrahydronaphthalen-1-yl]carbamoyl]pyrrolidin-3-yl]oxy]propanoyl)piperazin-1-yl]-3-oxopropoxy]-N-[(1R)-1,2,3,4-tetrahydronaphthalen-1-yl]pyrrolidine-2-carboxamide]: the results for the IC50 in assay [1], in assay [2] and in assay [3] were 10 to 100 nM, 0.1 to 10 nM and 10 to 100 nM, respectively.

Turning to `CN[C@@H](C)C(=O)N[C@H](C(=O)N1C[C@@H](OCCC(=O)N2CCN(C(=O)CCO[C@H]3C[C@@H](C(=O)N[C@@H]4CCCc5ccccc54)N(C(=O)[C@@H](NC(=O)[C@H](C)NC)C4CCC4)C3)CC2)C[C@H]1C(=O)N[C@@H]1CCCc2ccccc21)C1CCC1` [Compound IV-G, (2S,4S)-1-[(2S)-2-Cyclobutyl-2-[(2S)-2-(methylamino)propanamido]acetyl]-4-[3-[4-(3-[[(3S,5S)-1-[(2S)-2-cyclobutyl-2-[(2S)-2-(methylamino)propanamido]acetyl]-5-[[(1R)-1,2,3,4-tetrahydronaphthalen-1-yl]carbamoyl]pyrrolidin-3-yl]oxy]propanoyl)piperazin-1-yl]-3-oxopropoxy]-N-[(1R)-1,2,3,4-tetrahydronaphthalen-1-yl]pyrrolidine-2-carboxamide], the IC50 was 10 to 100 nM in assay [1], 0.1 to 10 nM in assay [2] and 10 to 100 nM in assay [3].

The record behind these values is patent US20210371459A1, “DIMERIC PEPTIDE INHIBITORS OF APOPTOSIS PROTEINS” (Hepagene Therapeutics (HK) Limited, priority 2017, published 2021).
